Results: patent US20210239702A1, “METHODS FOR PREDICTING RESPONSIVENESS OF LUNG CANCER PATIENTS TO HER2-TARGETING THERAPIES” (MEMORIAL SLOAN KETTERING CANCER CENTER, priority 2018, published 2021)

How the values were obtained:
HER2 mutant lung cancers = tested on: HER2 mutant lung cancers
From the text: (§1) Patients with stage 4 or recurrent HER2 mutant lung cancers were enrolled in the cohort, as illustrated in the basket trial scheme in FIG. 1. Other cohorts of this basket trial included HER2 amplified lung, bladder and other solid tumors, as illustrated by FIG. 1. HER2 mutations were identified through next generation sequencing (NGS) including exon 20 insYVMA, insGSP, insTGT, single base pair substitutions L755A, L755S, V777L, V659E, S310F or other likely activating mutations. Other inclusion criteria included age (≥18 years old), Karnofsky performance status (≥70%), measurable disease by Response Evaluation Criteria in Solid Tumors (RECIST) v1.1, and adequate left ventricular, bone marrow, and hepatic function.
Physical examination and safety assessments were performed every 3 weeks. Tumor assessments using contrast enhanced computed tomography of the chest, abdomen, and pelvis were performed at baseline, week 6, week 12, and every 12 weeks thereafter until disease progression was observed. Brain imaging was not routinely performed unless clinically indicated. Left ventricular ejection fraction measurements by echocardiography or multi-gated acquisition scan were performed at baseline then every 3 months. […] Secondary objectives included assessment of progression-free survival (PFS) and toxicity according to the National Cancer Institute Common Terminology Criteria for Adverse Events version 4.1 (NCI CTCAE v4.1). The molecular associations between HER2 mutations, HER2 amplification and HER2 protein expression were examined using different molecular diagnostic assays whenever archival tissue was available. NGS assessed for HER2 mutation and amplification, fluorescence in situ hybridization (FISH) assessed for HER2 amplification, and HER2 protein overexpression was assessed by immunohistochemistry (IHC) and quantitative mass spectrometry. FISH was performed using FDA approved probe sets (PathVysion, Abbott Molecular, Chicago, Ill. and HER2 IQFISH pharmDx, Agilent, Santa Clara, Calif.) and positive HER2 amplification was defined as HER2/CEP17 ratio ≥2.0. HER2 protein by IHC was assessed using the 4B5 Ventana antibody (Ventana Medical Systems, Oro Valley Ariz.). Quantitative HER2 protein by selected reaction monitoring mass spectrometry on fixed-formalin paraffin-embedded tissue was performed using methods previously validated in breast cancers, with ≥740 amol/ug as the cutoff for high HER2 expression (see Nuciforo P., et al., Mol. Oncol., 10:138-147 (2016)).
Target accrual was a minimum of 7 patients (stage 1) and maximum of 18 patients (stage 1 and 2) in each cohort. The primary endpoint was best confirmed overall response rate (ORR) per RECIST v1.1. The Simon's optimal two-stage design was employed with a multiple testing adjusted type I error rate for each cohort. For a targeted agent where higher response rates were expected, a true ORR of ≤10% was considered unacceptable (null hypothesis), whereas a true ORR of ≥40% merited further study (alternative hypothesis). In the first stage, 7 patients were accrued; if there were no responses observed at interim analysis of the 7 patients in a particular cohort, the cohort was closed. Otherwise, 11 additional patients were accrued for a total of 18 patients. […] The overall family-wise error rate at the study level was <10%. The exact 95% CI for ORR was calculated using the Clopper-Pearson method. PFS time was estimated by the Kaplan-Meier method. Follow-up time was calculated from the start of treatment to the most recent patient follow-up assessment.

[1] = tested on: HER2-amplified salivary gland cancers; conditions: FLIM-FRET positive in 3/3
From the text: as §1

With ado-trastuzumab emtansine the “outcome of patients with active untreated brain metastases at enrollment” value (HER2 mutant lung cancers; 2 patients, first response assessment) was “both patients had progression of disease systemically and in the central nervous system”, the “patients with progression of disease as best response” value (HER2 mutant lung cancers; 3 of 18 patients) was 17% and the “responders among patients pretreated with prior systemic therapy” value (HER2 mutant lung cancers; 6 of 15 pretreated patients) was 40%. For the same substance, the “median PFS for the responders” value (HER2 mutant lung cancers; 95% CI 4 months to not reached) was 6 months, the “median PFS for all patients” value (HER2 mutant lung cancers; N=18, 95% CI 3 to 9 months) was 5 months and the “overall response rate (ORR, all partial and confirmed)” value (HER2 mutant lung cancers; RECIST v1.1, 3.6 mg/kg IV every 21 days, 18 patients, 95% CI 22-69%) was 44%. The “patients who achieved stable disease” value (HER2 mutant lung cancers; in vivo) was 39%, the “patients with confirmed radiologic partial response” value (HER2 mutant lung cancers; out of 18 patients with ERBB2-mutant lung cancers) was 8 and the “longest PFS observed / durable disease control” value (HER2 mutant lung cancers; patient with stable disease as best response, -27% tumor shrinkage) was ≥ 11 months. The “median time to response from start of treatment” value (HER2 mutant lung cancers; range 1 to 4 months) was 2 months, the “median duration of response” value (HER2 mutant lung cancers; range 2 to 9 months) was 4 months and the “response among FLIM-FRET positive patients” value [1] was “all 3 patients responded”.
